# In patent US20250281610A1, “P2RY2 ACTIVITY MODULATORS” (Deutsches Krebsforschungszentrum Stiftung des öffentlichen …, priority 2022, published 2025):
# Legend:
# BxPC3 cells = test: Viability of BxPC3 cells in co-culture with MART-1-specific TCR-T cells (CellTiter-Blue); format: cell-based, human; conditions: single agent: 5 μM AR-C, 10 μg/ml atezolizumab or 10 μg/ml durvalumab, 6-24 hours (FIG. 11)
# From the text: FIG. 11. […] Untreated cells served as the control.
# (§1) MART-1 specific T cells were generated as described (Mezzadra et al., Nature 549, 106-110 (2017); Jorritsma et al., Blood 110 (10): 3564-3572. (2007)). To generate CD33-specific chimeric antigen receptor (CAR) T cells, a CD33Hul95-CD28Z CAR (described in WO 2019/178382) cassette was cloned into a retroviral vector, and the resulting virus was used to transduce T cells as described (Mezzadra et al., Nature 549, 106-110 (2017); Jorritsma et al., Blood 110 (10): 3564-3572. (2007)).
# (§2) MART1-specific CD8+ T cells and MART1 epitope-expressing cancer cells were mixed at a ratio of 1:16 to 1:4. Next, cells were centrifugated at 1,600 g for 3 min and incubated at 37° C. and 5% CO2 for 12-72 hours. T cell activation was assessed by surface staining with anti-CD137-BV421 (4-1BB, Biolegend), anti-CD69-APC/Fire™ 750 (FN50, Biolegend), anti-CD25-AF700 (BC96, Biolegend) antibodies and intracellular staining with anti-IL-2-PE/Cy7 (MQ1-17H12, Biolegend), anti-IFN-7-BV421 (4S.B3, Biolegend), anti-TNF-α-BV785 (MAb11, Biolegend) antibodies, followed by flow cytometry analysis. For intracellular staining, brefeldin A (Biolegend) was added to the cell culture medium 4 h before cells were harvested. The viability of cancer cells that grow in suspension including THP-1 cells was assessed by flow cytometry-based absolute cell counting using AccuCount beads (Spherotech). For adherent cancer cells including BxPC3 and MCF7, the cell viability was quantified using CellTiter-Blue Cell Viability Assay (Promega).
# [1] = system: MART-1-specific TCR transduced T cells cultured with MART-1-epitope transduced BxPC3 cells; test: T cell activation markers in co-culture of MART-1-specific TCR-T cells with MART-1+ BxPC3 cells; format: cell-based, human; conditions: single agent: 5 μM AR-C, 10 μg/ml atezolizumab or 10 μg/ml durvalumab, 6-24 hours, CD8+ MART-1-specific TCR+ population (FIG. 10)
# From the text: FIG. 10. […] Untreated cells served as the control.
# as §1
# as §2, with “Next, cells were centrifugated at 1,600 g for 3 min and incubated at 37° C. and 5% CO2 for 12-72 hours.” left out
substance,measurement,setting,value
durvalumab: Blocking antibody of the PD-L1-PD-1 immune checkpoint,viability of BxPC3 cells,BxPC3 cells,reduced
same,expression of CD25 on T cells,[1],elevated
same,expression of CD69 on T cells,[1],elevated
same,expression of CD137 on T cells,[1],elevated
